Bounds are passed on as bounds.

The first assay has as its system HBV DNA in HepG2.2.15 cells. Description: HBV in vitro dot-blot hybridization test. The assay is classed as cell-based, Hepatitis B virus. As to conditions: Hepatitis B virus, HepG2.2.15, dot-blot hybridization assay, read-out: Concentration for 50% inhibition of HBV (EC50)value. On the procedure:
• 1. Purpose of the test: • The content of HBV DNA in HepG2.2.15 cells was detected by dot-blot hybridization test to evaluate an inhibitory action of the compound on HBV with an EC50 value as an indicator. • 2. Experimental materials: • 2.1 Cell lines: HepG2.2.15 Cells • HepG2.2.15 cell culture media (DMEM/F12, Invitrogen-11330057; 10% serum Invitrogen-10099141; 100 units/mL Penicillin and 10 μg/mL Streptomycin, Invitrogen-15140122; 1% non-essential amino acid, Invitrogen-11140076; 2 mM L-GLUTAMINE, Invitrogen-25030081; 300 µg/ml Geneticin, Invitrogen-10131027 • 2.2 Reagents: • Trypsin (I Invitrogen-25300062) • DPBS (Hyclone-SH30028.01B) • DMSO (Sigma-D2650-100ML) • 96-well cell-culture plate (Corning-3599) • CO2 incubator (HERA-CELL-240) • 20×SSC (Bio-serve Co. Ltd) • Tris-HCl (Aldirch-154563-1KG) • NaOH (Sinopharm 10019718) • NaCl (Sinopharm 10019308) • Hybridization solution (Major BioTech Co. Ltd, IMMUNE GOLD-HYB-500) • DIG Wash and Block Buffer set (Roche-11585762001) • Anti-digoxigenin-AP, Fab fragments from sheep (Roche-11093274910) • 2.3 Materials and Instruments: • Positively-Charged Nylon Membrane (GE-RPN2250B) • Transfer Membrane Instrument (Bio-Rad, 170-6545) • Hybridization Oven (HL-2000 Hybrilinker) • 3. Testing steps and Methods: • 3.1 HepG2.2.15 cells (4×10^4 cells/well) were planted into a 96-well plate, and at 37° C., 5% CO2 cultured overnight. • 3.2 On Day 2, the compounds were diluted in totally 6 concentrations with a dilution gradient of five times. The compounds at different concentrations were added into the culture wells in duplicate. The final concentration of DMSO in the culture media was 1%. 1 μM GLS4 was used as 100% inhibition control; 1% DMSO as 0% inhibition control. • 3.3 On Day 5, replacing with the fresh culture media containing the compound was performed. • 3.4 On Day 8 and Day 9, the culture media in the culture wells was removed, and the cells were harvested for dot-blot hybridization. • The lysate was added into a culture well, and at 37° C. incubating for half an hour to disintegrate cells; the supernatant was obtained by centrifugation and transferred into a new microplate; a denaturation solution was added, after sufficient mixing the denatured sample was transferred and imprinted onto a Nylon membrane, the nucleic acid was fixed onto the membrane by UV cross-linking. • Pre-hybridization: the membrane was incubated at 60° C. in a hybridization solution for 1 hour. • Hybridization: heating the denatured digoxin-labelled HBV DNA probe and incubating at 60° C. overnight. • Membrane Washing: performing high strigency washing twice, low strigency washing for 3 times. • Blocking: incubating the membrane at room temperature in a blocking solution for 30-60 minutes. • Hybridization: diluting the Antibody Solution with the blocking solution, in which the membrane was placed and incubated at room temperature for 30-60 minutes. • Developing: washing the membrane in a Detection Buffer for 5 minutes, followed by adding a developing solution, pressing and exposing. • The photos was saved in tiff format, and a gray value of the dot was quantified with quantity one software. • 3.5 Data Analysis: • 3.5.1 The inhibition percentage was calculated: % Inh.=[1−(sample dot gray value−1 μM GLS4 dot gray value 1)/(DMSO control dot gray value−1 μM GLS4 dot gray value 1)]×100. • 3.5.2 Calculating EC50: the concentration of the compound for 50% inhibition of HBV (EC50) was calculated by using GraphPad Prism Software. • 4.
Consider `CCOC(=O)C1=C2CN(C(=O)OC)CCN2C(c2nccs2)=N[C@H]1c1ccc(F)cc1Br` [Example 85], for which the EC50 lay in the range of 100 to 500 nM.

Take `CCOC(=O)C1=C2CN(C(=O)NC)CCN2C(c2nccs2)=N[C@H]1c1ccc(F)cc1Br` [Example 88]: the EC50 was 500 to 1000 nM.

Turning to `CCOC(=O)C1=C2CN(C(=O)CN)CCN2C(c2nccs2)=N[C@H]1c1ccc(F)cc1Br` [Example 89], the EC50 was 1000 to 5000 nM.

For the molecule `CCOC(=O)C1=C2CN(C(=O)C3(C)COC3)CCN2C(c2nccs2)=N[C@H]1c1ccc(F)cc1Br` [Example 90], the EC50 is 100 to 500 nM.

On to `CCOC(=O)C1=C2CN(C(=O)C3CC3)CCN2C(c2nccs2)=N[C@H]1c1ccc(F)cc1Br` [Example 91], for which the EC50 fell in the range of 100 to 500 nM.

Take `CCOC(=O)C1=C2CN(C(=O)C(C)C)CCN2C(c2nccs2)=N[C@H]1c1ccc(F)cc1Br` [Example 92]: the EC50 is under 100 nM.

With `CCOC(=O)C1=C2CN(S(=O)(=O)C3CC3)CCN2C(c2nccs2)=N[C@H]1c1ccc(F)cc1Br` [Example 93], the EC50 fell in the range of 100 to 500 nM.

`CCOC(=O)C1=C2CN(Cc3cc(C)on3)CCN2C(c2nccs2)=N[C@H]1c1ccc(F)cc1Br` [Example 94]: the EC50 lay in the range of 1000 to 5000 nM.

As to `CCOC(=O)C1=C2CN(CC(=O)OC)CCN2C(c2nccs2)=N[C@H]1c1ccc(F)cc1Br` [Example 98], the EC50 lay within 1000 to 5000 nM.

In the case of `CCOC(=O)C1=C2CN(CC(=O)O)CCN2C(c2nccs2)=N[C@H]1c1ccc(F)cc1Br` [Example 99], the EC50 was in the range of 1000 to 5000 nM.

Turning to `CCOC(=O)C1=C2CN(Cc3cocn3)CCN2C(c2nccs2)=NC1c1ccc(F)cc1Br` (centres unmarked) [Example 100], the EC50 fell in the range of 1000 to 5000 nM.

Consider `CCOC(=O)C1=C2CN(C#N)CCN2C(c2nccs2)=N[C@H]1c1ccc(F)cc1Br` [Example 101], for which the EC50 lay within 500 to 1000 nM.

Take `CCOC(=O)C1=C2CN(C3COC3)CCN2C(c2nccs2)=N[C@H]1c1ccc(F)cc1Br` [Example 102]: the EC50 lay within 500 to 1000 nM.

In the case of `CCNC(=S)N1CCN2C(c3nccs3)=N[C@@H](c3ccc(F)cc3Br)C(C(=O)OCC)=C2C1` [Example 103], the EC50 fell in the range of 100 to 500 nM.

Consider `CCOC(=O)C1=C2CN(CC(=O)OC)C(=O)CN2C(c2nccs2)=N[C@H]1c1ccc(F)cc1Br` [Example 106], for which the EC50 lay in the range of 1000 to 5000 nM.

In the case of `CCOC(=O)C1=C2C[C@@H](CS(C)(=O)=O)CN2C(c2nccs2)=N[C@H]1c1ccc(F)cc1Br` [Example 113], the EC50 was 100 to 500 nM.

Take `CCOC(=O)C1=C2C[C@H](CS(C)(=O)=O)CN2C(c2nccs2)=N[C@H]1c1ccc(F)cc1Br` [Example 114]: the EC50 fell in the range of 100 to 500 nM.

As for `CCOC(=O)C1=C2CN(Cc3ccc(OC)cc3)C[C@@H](C(=O)OC)N2C(c2nccs2)=N[C@H]1c1ccc(F)cc1Br` [Example 115], the EC50 lay within 100 to 500 nM.

On to `CCOC(=O)C1=C2C[C@@H](NS(=O)(=O)C(C)C)CN2C(c2nccs2)=N[C@H]1c1ccc(F)cc1Br` [Example 116], for which the EC50 is under 100 nM.

Still in this assay, the particulars now being: Hepatitis B virus, HepG2.2.15, summary list of target compounds, Examples 1-165 (same as Table 2), read-out: BIOACTIVITY (inhibitory actions on HBV DNA, EC50).
For the molecule `CCOC(=O)C1=C2CN(C(=O)OC)CCN2C(c2nccs2)=N[C@H]1c1ccc(F)cc1Br` [Example 85], the EC50 was 100 to 500 nM.

Consider `CCOC(=O)C1=C2CN(C(=O)NC)CCN2C(c2nccs2)=N[C@H]1c1ccc(F)cc1Br` [Example 88], for which the EC50 lay in the range of 500 to 1000 nM.

As to `CCOC(=O)C1=C2CN(C(=O)CN)CCN2C(c2nccs2)=N[C@H]1c1ccc(F)cc1Br` [Example 89], the EC50 lay in the range of 1000 to 5000 nM.

Turning to `CCOC(=O)C1=C2CN(C(=O)C3(C)COC3)CCN2C(c2nccs2)=N[C@H]1c1ccc(F)cc1Br` [Example 90], the EC50 lay within 100 to 500 nM.

Take `CCOC(=O)C1=C2CN(C(=O)C3CC3)CCN2C(c2nccs2)=N[C@H]1c1ccc(F)cc1Br` [Example 91]: the EC50 was 100 to 500 nM.

Regarding `CCOC(=O)C1=C2CN(C(=O)C(C)C)CCN2C(c2nccs2)=N[C@H]1c1ccc(F)cc1Br` [Example 92], the EC50 is under 100 nM.

Take `CCOC(=O)C1=C2CN(S(=O)(=O)C3CC3)CCN2C(c2nccs2)=N[C@H]1c1ccc(F)cc1Br` [Example 93]: the EC50 was 100 to 500 nM.

With `CCOC(=O)C1=C2CN(Cc3cc(C)on3)CCN2C(c2nccs2)=N[C@H]1c1ccc(F)cc1Br` [Example 94], the EC50 lay in the range of 1000 to 5000 nM.

On to `CCOC(=O)C1=C2CN(CC(=O)OC)CCN2C(c2nccs2)=N[C@H]1c1ccc(F)cc1Br` [Example 98], for which the EC50 was in the range of 1000 to 5000 nM.

Consider `CCOC(=O)C1=C2CN(CC(=O)O)CCN2C(c2nccs2)=N[C@H]1c1ccc(F)cc1Br` [Example 99], for which the EC50 lay in the range of 1000 to 5000 nM.

Turning to `CCOC(=O)C1=C2CN(Cc3cocn3)CCN2C(c2nccs2)=NC1c1ccc(F)cc1Br` (centres unmarked) [Example 100], the EC50 is 1000 to 5000 nM.

Turning to `CCOC(=O)C1=C2CN(C#N)CCN2C(c2nccs2)=N[C@H]1c1ccc(F)cc1Br` [Example 101], the EC50 is 500 to 1000 nM.

For the molecule `CCOC(=O)C1=C2CN(C3COC3)CCN2C(c2nccs2)=N[C@H]1c1ccc(F)cc1Br` [Example 102], the EC50 lay in the range of 500 to 1000 nM.

Regarding `CCNC(=S)N1CCN2C(c3nccs3)=N[C@@H](c3ccc(F)cc3Br)C(C(=O)OCC)=C2C1` [Example 103], the EC50 fell in the range of 100 to 500 nM.

With `CCOC(=O)C1=C2CN(CC(=O)OC)C(=O)CN2C(c2nccs2)=N[C@H]1c1ccc(F)cc1Br` [Example 106], the EC50 is 1000 to 5000 nM.

Turning to `CCOC(=O)C1=C2C[C@@H](CS(C)(=O)=O)CN2C(c2nccs2)=N[C@H]1c1ccc(F)cc1Br` [Example 113], the EC50 was 100 to 500 nM.

`CCOC(=O)C1=C2C[C@H](CS(C)(=O)=O)CN2C(c2nccs2)=N[C@H]1c1ccc(F)cc1Br` [Example 114]: the EC50 lay in the range of 100 to 500 nM.

For the molecule `CCOC(=O)C1=C2CN(Cc3ccc(OC)cc3)C[C@@H](C(=O)OC)N2C(c2nccs2)=N[C@H]1c1ccc(F)cc1Br` [Example 115], the EC50 lay in the range of 100 to 500 nM.

Consider `CCOC(=O)C1=C2C[C@@H](NS(=O)(=O)C(C)C)CN2C(c2nccs2)=N[C@H]1c1ccc(F)cc1Br` [Example 116], for which the EC50 was under 100 nM.

Source of the values: patent US9938301B2, “Dihydropyrimido fused ring derivative as HBV inhibitor” (QILU PHARMACEUTICAL CO., LTD., priority 2014, dated 2018).
